IC50 data for 40 molecules are collected here from patent publication US20130102595A1 (Curis, Inc., priority 2011, published 2013).

One test concerns the target T1, PI3Kα (p110α/p85α) (Homo sapiens, UniProt P42336).
T1 construct: GST (N); made in house; host or cells: Baculovirus-infected Sf9 cells
In words: PI3Kα ADP-Glo assay. The test is classed as biochemical. Particulars: 20 μM PIP2, 10 μM ATP, 30 minutes. The protocol: (A) an In Vitro Assay which Determines the Ability of a Test Compound to Inhibit PI3Kα.
Activity of PI3Kα was measured using ADP-Glo assay from Promega. PI3Kα, a complex of N-terminal GST-tagged recombinant full-length human p110α (GenBank, Accession No. U79143) and N-terminal His tagged recombinant full length human p85a (GenBank Accession No. XM—043865) were co-expressed in a Baculovirus infected Sf9 cell expression system. The ADP-Glo assay was performed to measure the amount of ADP generated from ATP hydrolysis coupled with PIP2 phosphorylation by the purified recombinant PI3Kα (p110α/p85α). PI3Kα was incubated with 20 μM PIP2 substrate in the reaction buffer (50 mM HEPES, pH 7.4, 150 mM NaCl, 5 mM MgCl2, 1 mM DTT, 3 uM Naorthovanadate, 10 μM ATP and 0.5% DMSO) for 30 minutes at room temperature. The ADP generated was then detected by ADP-Glo assay from Promega, a luminescent ADP detection assay. The ADP-Glo assay is performed in two steps; first, after the kinase reaction, ADP-Glo Reagent is added to terminate the kinase reaction and deplete the remaining ATP. Second, the Kinase Detection Reagent is added to simultaneously convert ADP to ATP and allow the newly synthesized ATP to be measured using a luciferase/luciferin reaction.
For orientation: ADP-Glo first removes unused ATP, then detects ADP through luciferase.

In test [1] the test system is HDACs (HeLa cell nuclear extracts). In words: HDAC enzymatic activity, Biomol Color de Lys system. The test is classed as biochemical. Particulars: 1 hour, 25° C. The protocol:
(E) an In Vitro Assay which Determines the Ability of a Test Compound to Inhibit HDAC Enzymatic Activity.
HDAC inhibitory activity was assessed using the Biomol Color de Lys system (AK-500, Biomol, Plymouth Meeting, Pa.). Briefly, HeLa cell nuclear extracts were used as a source of HDACs. Different concentrations of test compounds were serially diluted in dimethylsulphoxide (DMSO) and added to HeLa cell nuclear extracts in the presence of a colorimetric artificial substrate. Final assay condition contained 50 mM Tris/Cl, pH 8.0, 137 mM NaCl, 2.7 mM KCl and 1 mM MgCl2. Reactions were carried in room temperature (25° C.) for 1 hour before addition of developer for termination. Relative enzyme activity was measured in the WALLAC Victor II 1420 microplate reader as fluorescence intensity (excitation: 350-380 nm; emission: 440-460 nm). Data were analyzed using GraphPad Prism (v4.0a) with a sigmoidal dose response curve fitting for IC50 calculation.

T1 sequence (P42336 whole entry): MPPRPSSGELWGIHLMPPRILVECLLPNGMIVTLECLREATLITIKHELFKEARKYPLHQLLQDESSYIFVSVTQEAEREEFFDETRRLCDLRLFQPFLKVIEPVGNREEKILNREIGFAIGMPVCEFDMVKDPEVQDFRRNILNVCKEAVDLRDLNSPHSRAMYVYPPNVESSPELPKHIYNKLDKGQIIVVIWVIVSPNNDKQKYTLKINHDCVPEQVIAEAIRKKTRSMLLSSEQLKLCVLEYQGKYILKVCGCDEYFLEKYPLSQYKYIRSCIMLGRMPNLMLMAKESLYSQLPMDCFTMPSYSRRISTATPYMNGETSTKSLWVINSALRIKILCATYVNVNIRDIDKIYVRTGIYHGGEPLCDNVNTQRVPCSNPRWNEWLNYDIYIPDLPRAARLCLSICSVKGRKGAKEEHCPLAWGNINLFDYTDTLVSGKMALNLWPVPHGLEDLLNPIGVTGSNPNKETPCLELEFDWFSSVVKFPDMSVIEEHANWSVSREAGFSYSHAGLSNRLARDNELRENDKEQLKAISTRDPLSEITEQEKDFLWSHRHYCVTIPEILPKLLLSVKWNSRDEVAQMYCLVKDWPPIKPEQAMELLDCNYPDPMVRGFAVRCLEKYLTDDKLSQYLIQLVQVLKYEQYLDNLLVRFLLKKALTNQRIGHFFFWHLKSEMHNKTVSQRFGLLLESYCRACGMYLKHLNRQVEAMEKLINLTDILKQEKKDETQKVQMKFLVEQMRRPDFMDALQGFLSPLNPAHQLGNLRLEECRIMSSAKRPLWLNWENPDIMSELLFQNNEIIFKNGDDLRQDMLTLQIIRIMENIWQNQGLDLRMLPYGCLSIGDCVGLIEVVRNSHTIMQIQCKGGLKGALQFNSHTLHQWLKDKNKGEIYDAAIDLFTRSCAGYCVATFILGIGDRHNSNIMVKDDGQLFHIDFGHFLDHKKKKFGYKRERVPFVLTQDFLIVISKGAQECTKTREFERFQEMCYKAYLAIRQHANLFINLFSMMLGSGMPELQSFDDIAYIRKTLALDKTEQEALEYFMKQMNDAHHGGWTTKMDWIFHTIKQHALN
T1 sequence (P27986 whole entry partner): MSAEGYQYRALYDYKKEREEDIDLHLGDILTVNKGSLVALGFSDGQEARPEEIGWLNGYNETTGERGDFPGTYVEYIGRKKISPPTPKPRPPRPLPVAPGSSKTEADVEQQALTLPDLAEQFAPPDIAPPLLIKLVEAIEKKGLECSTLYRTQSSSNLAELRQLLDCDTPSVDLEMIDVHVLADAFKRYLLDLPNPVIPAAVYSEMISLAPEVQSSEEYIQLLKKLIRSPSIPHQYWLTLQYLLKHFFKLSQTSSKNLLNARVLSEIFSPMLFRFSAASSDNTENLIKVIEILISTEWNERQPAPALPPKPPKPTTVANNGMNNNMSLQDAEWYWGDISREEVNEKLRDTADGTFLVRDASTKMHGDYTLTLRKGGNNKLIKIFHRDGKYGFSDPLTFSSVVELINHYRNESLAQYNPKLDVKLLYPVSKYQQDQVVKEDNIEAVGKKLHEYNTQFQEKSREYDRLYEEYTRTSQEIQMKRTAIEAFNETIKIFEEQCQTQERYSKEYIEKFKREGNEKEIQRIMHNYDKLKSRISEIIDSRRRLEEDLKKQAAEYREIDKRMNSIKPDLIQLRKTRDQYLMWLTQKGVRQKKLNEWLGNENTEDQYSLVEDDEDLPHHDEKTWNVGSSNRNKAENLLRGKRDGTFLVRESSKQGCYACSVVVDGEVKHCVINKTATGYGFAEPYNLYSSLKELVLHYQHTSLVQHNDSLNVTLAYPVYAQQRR

In the case of `CCN(CC)c1nc(-c2cccc3[nH]ncc23)nc2cc(CN(C)c3ncc(C(=O)NO)cn3)sc12` [Compound 158], the concentration for half-maximal inhibition (IC50) (commonly the concentration that gives 50% inhibition) is more than 10000 nM against PI3Kα (p110α/p85α) and less than 100 nM in test [1].
The matching figures for `CN(C)c1nc(-c2cccc3[nH]ncc23)nc2cc(CN(C)c3ncc(C(=O)NO)cn3)sc12` [Compound 159]: 1000 to 10000 nM and less than 100 nM.
The corresponding values for `COCCNc1nc(-c2cccc3[nH]ncc23)nc2cc(CN(C)c3ncc(C(=O)NO)cn3)sc12` [Compound 160] are more than 10000 nM and less than 100 nM.
The corresponding values for `CN(Cc1cc2nc(-c3cccc4[nH]ncc34)nc(NCCO)c2s1)c1ncc(C(=O)NO)cn1` [Compound 161] are 100 to 1000 nM and less than 100 nM.
`CN(Cc1cc2nc(-c3cccc4[nH]ncc34)nc(N(CCO)CCO)c2s1)c1ncc(C(=O)NO)cn1` [Compound 162]: the IC50 against PI3Kα (p110α/p85α) was 1000 to 10000 nM; in test [1], less than 100 nM.
As to `COCCN(CCOC)c1nc(-c2cccc3[nH]ncc23)nc2cc(CN(C)c3ncc(C(=O)NO)cn3)sc12` [Compound 163], the results for the IC50 (at PI3Kα (p110α/p85α); in test [1]) were 100 to 1000 nM and less than 100 nM, respectively.
The matching figures for `COc1ccc(Nc2nc(-c3cccc4[nH]ncc34)nc3cc(CN(C)c4ncc(C(=O)NO)cn4)sc23)cc1` [Compound 165]: more than 10000 nM and less than 100 nM.
The matching figures for `COc1cccc(Nc2nc(-c3cccc4[nH]ncc34)nc3cc(CN(C)c4ncc(C(=O)NO)cn4)sc23)c1` [Compound 166]: more than 10000 nM and less than 100 nM.
The matching figures for `COc1ccccc1Nc1nc(-c2cccc3[nH]ncc23)nc2cc(CN(C)c3ncc(C(=O)NO)cn3)sc12` [Compound 167]: 100 to 1000 nM and less than 100 nM.
`CN(Cc1cc2nc(-c3ccc4[nH]ccc4c3)nc(N3CCOCC3)c2s1)c1ncc(C(=O)NO)cn1` [Compound 192]: the half-inhibitory concentration (IC50) was 100 to 1000 nM at PI3Kα (p110α/p85α) and less than 100 nM in test [1].
The matching figures for `CN(Cc1cc2nc(-c3ccc4c(c3)CCN4)nc(N3CCOCC3)c2s1)c1ncc(C(=O)NO)cn1` [Compound 193]: more than 10000 nM and less than 100 nM.
For `O=C(NO)c1ccc(CNCc2cc3nc(-c4cccc5[nH]ncc45)nc(N4CCOCC4)c3s2)cc1` [Compound 203], the IC50 (against PI3Kα (p110α/p85α); in test [1]) was 100 to 1000 nM throughout.
As to `O=C(/C=C/c1ccc(CNCc2cc3nc(-c4cccc5[nH]ncc45)nc(N4CCOCC4)c3s2)cc1)NO` [Compound 204], the IC50 (against PI3Kα (p110α/p85α); in test [1]) was 100 to 1000 nM each time.
For the molecule `CN(Cc1cc2nc(-c3ccc(N)cc3)nc(N3CCOCC3)c2s1)c1ccc(C(=O)NO)cc1` [Compound 206], the IC50 is 100 to 1000 nM at PI3Kα (p110α/p85α) and less than 100 nM in test [1].
The matching figures for `Nc1ccc(-c2nc(N3CCOCC3)c3sc(CN4CCN(c5ncc(C(=O)NO)cn5)CC4)cc3n2)cc1` [Compound 207]: 100 to 1000 nM and less than 100 nM.
On to `Nc1ccc(-c2nc(N3CCOCC3)c3sc(CNCc4ccc(C(=O)NO)cc4)cc3n2)cc1` [Compound 209], for which the IC50 on PI3Kα (p110α/p85α) was more than 10000 nM; in test [1] it was less than 100 nM.
With `Nc1ccc(-c2nc(N3CCOCC3)c3sc(CNCc4ccc(/C=C/C(=O)NO)cc4)cc3n2)cc1` [Compound 210], the IC50 (against PI3Kα (p110α/p85α); in test [1]) was 100 to 1000 nM each time.
Consider `CCN(Cc1cc2nc(-c3ccc(N)cc3)nc(N3CCOCC3)c2s1)c1ncc(C(=O)NO)cn1` [Compound 215], for which the IC50 on PI3Kα (p110α/p85α) was 100 to 1000 nM; in test [1] it was less than 100 nM.
The matching figures for `O=C(/C=C/c1cccc(S(=O)(=O)Nc2cc3nc(-c4cccc5[nH]ncc45)nc(N4CCOCC4)c3s2)c1)NO` [Compound 216]: less than 100 nM and less than 100 nM.
As for `COc1ncc(-c2nc(N3CCOCC3)c3sc(NS(=O)(=O)c4ccc(/C=C/C(=O)NO)cc4)cc3n2)cn1` [Compound 219], the IC50 (against PI3Kα (p110α/p85α); in test [1]) was less than 100 nM each time.
Regarding `COc1ncc(-c2nc(N3CCOCC3)c3sc(NS(=O)(=O)c4cccc(/C=C/C(=O)NO)c4)cc3n2)cn1` [Compound 220], the IC50 (at PI3Kα (p110α/p85α); in test [1]) was less than 100 nM throughout.
As for `CNc1ccc(-c2nc(N3CCOCC3)c3sc(NS(=O)(=O)c4ccc(/C=C/C(=O)NO)cc4)cc3n2)cn1` [Compound 223], the IC50 (at PI3Kα (p110α/p85α); in test [1]) was less than 100 nM throughout.
On to `CNc1ccc(-c2nc(N3CCOCC3)c3sc(NS(=O)(=O)c4cccc(/C=C/C(=O)NO)c4)cc3n2)cn1` [Compound 224], for which the IC50 (against PI3Kα (p110α/p85α); in test [1]) was less than 100 nM throughout.
Consider `CNc1ccc(-c2nc(N3CCOCC3)c3sc(NCCCCC(=O)NO)cc3n2)cn1` [Compound 228, N-Hydroxy-5-(2-(6-(methylamino)pyridin-3-yl)-4-morpholino-thieno[3,2-d]pyrimidin-6-ylamino)pentanamide], for which the IC50 (at PI3Kα (p110α/p85α); in test [1]) was less than 100 nM each time.
Take `COc1ccc(-c2nc(N3CCOCC3)c3sc(NCCCCC(=O)NO)cc3n2)cn1` [Compound 230]: the IC50 (on PI3Kα (p110α/p85α); in test [1]) was less than 100 nM each time.
`O=C(CCCCNc1cc2nc(-c3cc(O)ccc3F)nc(N3CCOCC3)c2s1)NO` [Compound 231]: the IC50 (on PI3Kα (p110α/p85α); in test [1]) was less than 100 nM in each case.
`Nc1ccc(-c2nc(N3CCOCC3)c3sc(CN(CCO)c4ncc(C(=O)NO)cn4)cc3n2)cn1` [Compound 235]: the IC50 (at PI3Kα (p110α/p85α); in test [1]) was less than 100 nM each time.
Regarding `CNc1ccc(-c2nc(N3CCOCC3)c3sc(C(C)(C)N(C)c4ncc(C(=O)NO)cn4)cc3n2)cn1` [Compound 241], the IC50 is 100 to 1000 nM at PI3Kα (p110α/p85α) and less than 100 nM in test [1].
The matching figures for `CNc1ccc(-c2nc(N3CCOCC3)c3sc(N(C)c4ncc(C(=O)NO)cn4)cc3n2)cn1` [Compound 243]: less than 100 nM and 100 to 1000 nM.
Consider `CNc1ccc(-c2nc(N3CCOCC3)c3sc(CN(CCO)c4ncc(C(=O)NO)cn4)cc3n2)cn1` [Compound 245], for which the IC50 (against PI3Kα (p110α/p85α); in test [1]) was less than 100 nM throughout.
`COc1ccc(-c2nc(N3CCOCC3)c3sc(C(C)N(C)c4ncc(C(=O)NO)cn4)cc3n2)cn1` (centres unmarked) [Compound 247, N-hydroxy-2-((1-(2-(6-methoxypyridin-3-yl)-4-morpholino-thieno[3,2-d]pyrimidin-6-yl)ethyl)(methyl)amino)pyrimidine-5-carboxamide]: the IC50 (against PI3Kα (p110α/p85α); in test [1]) was less than 100 nM throughout.
Turning to `COc1ccc(-c2nc(N3CCOCC3)c3sc(C(C)(C)Nc4ncc(C(=O)NO)cn4)cc3n2)cn1` [Compound 250, N-Hydroxy-2-(2-(2-(6-methoxypyridin-3-yl)-4-morpholino-thieno[3,2-d]pyrimidin-6-yl)propan-2-ylamino)pyrimidine-5-carboxamide], the IC50 (at PI3Kα (p110α/p85α); in test [1]) was less than 100 nM in each case.
As for `COc1ccc(-c2nc(N3CCOCC3)c3sc(Nc4ncc(C(=O)NO)cn4)cc3n2)cn1` [Compound 253], the IC50 was less than 100 nM at PI3Kα (p110α/p85α) and 100 to 1000 nM in test [1].
On to `CN(Cc1cc2nc(-c3ccc(O)nc3)nc(N3CCOCC3)c2s1)c1ncc(C(=O)NO)cn1` [Compound 254], for which the IC50 against PI3Kα (p110α/p85α) is 100 to 1000 nM; in test [1], less than 100 nM.
The corresponding values for `CN(Cc1cc2nc(-c3ccc(OCc4ccccc4)nc3)nc(N3CCOCC3)c2s1)c1ncc(C(=O)NO)cn1` [Compound 260] are more than 10000 nM and less than 100 nM.
The matching figures for `COc1ncc(-c2nc(N3CCOCC3)c3sc(C(C)(C)N(C)c4ncc(C(=O)NO)cn4)cc3n2)cn1` [Compound 264]: 100 to 1000 nM and less than 100 nM.
The matching figures for `CN(Cc1cc2nc(-c3cnc(OCc4ccccc4)nc3)nc(N3CCOCC3)c2s1)c1ncc(C(=O)NO)cn1` [Compound 266]: 100 to 1000 nM and less than 100 nM.
On to `CC(C)(Nc1ncc(C(=O)NO)cn1)c1cc2nc(-c3ccc(N)cc3)nc(N3CCOCC3)c2s1` [Compound 269, 2-(2-(2-(4-Aminophenyl)-4-morpholinothieno[3,2-d]pyrimidin-6-yl)propan-2-ylamino)-N-hydroxypyrimidine-5-carboxamide], for which the IC50 against PI3Kα (p110α/p85α) was 1000 to 10000 nM; in test [1], less than 100 nM.
Take `CN(c1ncc(C(=O)NO)cn1)c1cc2nc(-c3ccc(N)cc3)nc(N3CCOCC3)c2s1` [Compound 272]: the 50% inhibitory concentration (IC50) (on PI3Kα (p110α/p85α); in test [1]) was less than 100 nM in each case.
With `Nc1ccc(-c2nc(N3CCOCC3)c3sc(Nc4ncc(C(=O)NO)cn4)cc3n2)cc1` [Compound 273], the IC50 against PI3Kα (p110α/p85α) was less than 100 nM; in test [1] it was 100 to 1000 nM.
